Assay results: US11767305B2, “Advantageous benzofuran compositions for mental disorders or enhancement” (Tactogen Inc, priority 2020, dated 2023)

Assays:
5-HT2A receptors = 5-HT2A receptors (Homo sapiens (Human), UniProt P28223); experiment: 5-HT2A agonist and antagonist calcium assay (Calcium NWPLUS, FLIPR); assay type: cell-based
Experimental: The DiscoveRx Calcium NWPLUS Assay was used for detection of changes in intracellular calcium as signalled by an increase of dye fluorescence in cells expressing 5-HT2A receptors. Signal was measured on a fluorescent plate reader equipped with fluidic handling capable of detecting rapid changes in fluorescence upon compound stimulation.
To conduct the assay, cell lines were expanded from freezer stocks according to standard procedures. Cells (10,000 cells/well) were seeded in a total volume of 50 μL (200 cells/μL) into black-walled, clear-bottom, Poly-D-lysine coated 384-well microplates and incubated at 37-C for the appropriate time prior to testing. DMSO concentration for all readouts was ≤0.2%.
Assays were performed in 1×DyeLoading Buffer consisting of 1×Dye (DiscoverX, Calcium No WashPLUS kit, Catalog No. 90-0091), 1×Additive A and 2.5 mM Probenecid in HBSS/20 mM Hepes. Probenecid was prepared fresh. Cells were loaded with dye prior to testing. Media was aspirated from cells and replaced with 25 μL Dye Loading Buffer. Test compounds were assayed at 10 concentrations with the highest concentration either 30 or 10 μM and subsequent concentrations using a 0.33 dilution factor. Cells with testing sample were incubated for 45 minutes at 37° C. and then 20 minutes at room temperature. After dye loading, cells were removed from the incubator and 25 μL of 2×compound in HBSS/20 mM Hepes was added using a FLIPR Tetra (MDS). […]
Compound agonist activity was measured on a FLIPR Tetra. Calcium mobilization was monitored for 2 minutes with a 5 second baseline read. FLIPR read-Area under the curve was calculated for the two minute read. Compound activity was analyzed using CBIS data analysis suite (ChemInnovation, CA). Percentage activity was calculated as 100%×(mean RFU of test sample−mean RFU of vehicle control)/(mean MAX RFU control ligand −mean RFU of vehicle control). For antagonist mode assays, percentage inhibition was calculated as 100%×(1−(mean RFU of test sample−mean RFU of vehicle control)/(mean RFU of EC80 control−mean RFU of vehicle control)).

5-HT1BR = 5-HT1BR (Homo sapiens (Human), UniProt P28222); experiment: 5-HT1BR cAMP secondary messenger agonist assay (HitHunter, CHO-K1); assay type: cell-based
MAO-A = MAO-A (Homo sapiens (Human), UniProt P21397); experiment: MAO-A inhibition assay (kynuramine); assay type: biochemical
Chain of MAO-A (P21397 whole entry, looked up, species assumed): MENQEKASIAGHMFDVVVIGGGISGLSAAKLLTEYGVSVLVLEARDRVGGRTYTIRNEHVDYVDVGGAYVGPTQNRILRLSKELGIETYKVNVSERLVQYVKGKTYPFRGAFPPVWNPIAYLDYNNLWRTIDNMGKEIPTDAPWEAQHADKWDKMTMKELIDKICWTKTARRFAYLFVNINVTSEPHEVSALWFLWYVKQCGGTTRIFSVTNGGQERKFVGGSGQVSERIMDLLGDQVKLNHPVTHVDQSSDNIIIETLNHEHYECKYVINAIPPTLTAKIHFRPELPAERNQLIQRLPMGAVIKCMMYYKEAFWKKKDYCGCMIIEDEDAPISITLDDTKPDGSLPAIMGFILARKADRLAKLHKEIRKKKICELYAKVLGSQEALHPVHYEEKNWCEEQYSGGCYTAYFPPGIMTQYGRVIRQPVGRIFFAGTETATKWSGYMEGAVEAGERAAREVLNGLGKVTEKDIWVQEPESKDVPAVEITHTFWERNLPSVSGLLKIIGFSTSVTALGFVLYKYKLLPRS
Experimental: MAO-A and test compounds were preincubated at 37° C. for 15 minutes before substrate addition. Test compounds were assayed at 10 concentrations with the highest concentration either 30 or 10 μM and subsequent concentrations using a 0.33 dilution factor. The reaction was initiated by addition of kynuramine and incubated at 37° C. for 30 minutes. The reaction was terminated by addition of NaOH. The amount of 4-hydroquioline formed was determined through spectrofluorimetric readout with the emission detection at 380 nm and excitation wavelength 310 nm.

[1] = target: Nicotinic Acetylcholine Receptor α4β2 (nAchRa4/b2) (Homo sapiens (Human), UniProt P17787+P43681); experiment: Nicotinic acetylcholine receptor α4β2 ion channel blocking assay; assay type: cell-based
Chain of Nicotinic Acetylcholine Receptor α4β2 (nAchRa4/b2) (P43681 29-627 limits assumed): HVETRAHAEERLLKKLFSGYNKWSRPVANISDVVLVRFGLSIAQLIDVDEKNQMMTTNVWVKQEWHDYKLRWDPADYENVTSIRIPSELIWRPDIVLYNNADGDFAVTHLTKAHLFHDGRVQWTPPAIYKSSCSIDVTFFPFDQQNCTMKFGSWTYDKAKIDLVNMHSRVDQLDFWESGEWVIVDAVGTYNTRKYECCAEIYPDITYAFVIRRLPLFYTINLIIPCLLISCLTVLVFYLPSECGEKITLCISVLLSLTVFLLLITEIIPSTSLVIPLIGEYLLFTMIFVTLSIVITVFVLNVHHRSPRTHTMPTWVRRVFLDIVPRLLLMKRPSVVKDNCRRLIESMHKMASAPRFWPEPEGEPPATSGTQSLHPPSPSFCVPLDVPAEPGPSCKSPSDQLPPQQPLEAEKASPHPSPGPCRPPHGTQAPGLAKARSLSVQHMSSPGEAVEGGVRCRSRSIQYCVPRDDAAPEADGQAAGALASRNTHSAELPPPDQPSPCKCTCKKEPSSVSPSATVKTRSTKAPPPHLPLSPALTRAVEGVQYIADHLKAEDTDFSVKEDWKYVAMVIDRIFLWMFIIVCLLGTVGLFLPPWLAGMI
Chain of Nicotinic Acetylcholine Receptor α4β2 (nAchRa4/b2) (P17787 26-502 limits assumed): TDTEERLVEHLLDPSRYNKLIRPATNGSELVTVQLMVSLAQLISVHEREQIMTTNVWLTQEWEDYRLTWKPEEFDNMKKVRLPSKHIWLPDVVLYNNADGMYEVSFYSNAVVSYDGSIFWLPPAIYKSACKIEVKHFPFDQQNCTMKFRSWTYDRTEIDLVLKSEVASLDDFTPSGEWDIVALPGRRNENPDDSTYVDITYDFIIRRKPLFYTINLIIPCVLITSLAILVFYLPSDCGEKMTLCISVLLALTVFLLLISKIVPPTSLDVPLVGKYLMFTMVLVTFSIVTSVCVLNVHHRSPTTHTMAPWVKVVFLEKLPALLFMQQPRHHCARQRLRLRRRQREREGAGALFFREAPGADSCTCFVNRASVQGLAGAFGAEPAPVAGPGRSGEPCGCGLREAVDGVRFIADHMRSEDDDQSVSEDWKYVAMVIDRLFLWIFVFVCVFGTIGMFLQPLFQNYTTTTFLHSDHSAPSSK
Experimental: Cell lines were expanded from freezer stocks according to standard procedures. Cells were seeded in a total volume of 20 μL into black-walled, clear-bottom, Poly-D-lysine coated 384-well microplates and incubated at 37° C. for the appropriate time prior to testing.
Assays were performed in 1×Dye Loading Buffer consisting of 1×Dye, and 2.5 mM freshly-prepared Probenecid when applicable.
Test compounds were assayed at 10 concentrations with the highest concentration either 30 or 10 μM and subsequent concentrations using a 0.33 dilution factor.
Prior to testing, cells were loaded with dye then incubated for 30-60 minutes at 37° C. For antagonist determination, cells were pre-incubated with sample. Dihydro-β-erythroidine was used as a positive control. Intermediate dilution of sample stocks was performed to generate 2-5×sample in assay buffer.
After dye loading, cells were moved from the incubator and 10-25 μL 2-5×sample was added to cells in the presence of EC80 agonist when appropriate. Cells were incubated for 30 minutes at room temperature in the dark to equilibrate plate temperature. Vehicle concentration was 1%.
Compound activity was measured on a FLIPRTetra(MDS) and analyzed using CBIS data analysis suite (ChemInnovation, CA). Percentage inhibition was calculated using the following formula: % Inhibition=100%×(1−(mean RLU of test sample−mean RLU of vehicle control)/(mean RLU of EC80 control−mean RLU of vehicle control)).

5-HT2B = 5-HT2B (Homo sapiens (Human), UniProt P41595); experiment: 5-HT2B agonist and antagonist calcium assay (Calcium NWPLUS, FLIPR); assay type: cell-based
Chain of 5-HT2B (P41595 whole entry, looked up, species assumed): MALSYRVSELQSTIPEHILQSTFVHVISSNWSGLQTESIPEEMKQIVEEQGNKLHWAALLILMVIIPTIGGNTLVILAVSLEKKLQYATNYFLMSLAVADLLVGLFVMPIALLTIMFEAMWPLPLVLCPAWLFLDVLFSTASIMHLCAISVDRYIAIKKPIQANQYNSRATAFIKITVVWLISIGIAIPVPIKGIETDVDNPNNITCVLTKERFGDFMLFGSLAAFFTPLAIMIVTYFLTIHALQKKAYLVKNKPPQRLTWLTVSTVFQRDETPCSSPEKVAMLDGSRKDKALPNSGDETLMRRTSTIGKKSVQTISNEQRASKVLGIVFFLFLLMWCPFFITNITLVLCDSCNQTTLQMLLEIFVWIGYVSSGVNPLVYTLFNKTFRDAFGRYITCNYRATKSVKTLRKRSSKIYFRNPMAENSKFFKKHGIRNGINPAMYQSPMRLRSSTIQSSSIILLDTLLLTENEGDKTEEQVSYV

In the case of `CN[C@H](C)Cc1ccc2ccoc2c1` [Compound R-6-MAPB, (R)-1-(benzofuran-6-yl)-N-methylpropan-2-amine], the EC50 (5-HT2A receptors) is reported as 4620 nM, the “Hill Coef.” value (5-HT1BR) is reported as 1.14 and the EC50 (5-HT1BR; 5-HT1BR EC50 (μM)) is reported as 1.48 µM. It also gave an EC50 (5-HT1BR; 5HT1B Agonist (μM)) of 1.48 µM, an IC50 (MAO-A) of 2120 nM and an IC50 [1] of 7410 nM. For the same compound, the IC50 (5-HT2B) was 400 nM.
